This passage reports GI50 and TGI results from PubChem BioAssay (NCI).

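Results reflect a 48-hour exposure of cells in 96-well plates to compound at five concentrations. GI50 = concentration required for 50% inhibition of growth. TGI denotes the concentration required for complete inhibition of growth.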

One assay relates to MDA-MB-231 breast. Put plainly: inhibition of tumour cell growth, NCI panel, 48 h.
For a further assay, the system named is T-47D breast. Put plainly: inhibition of tumour cell growth, NCI panel, 48 h.

As for `COc1ccc2c(c1)CCC1C2CC[C@@]2(C)C1CC1=CC(COC(C)=O)C3C(=O)c4ccccc4C(=O)C3C12` (stereo partly drawn), in the assay with MDA-MB-231 breast, the GI50 is 52.4 µM and the TGI is more than 100 µM. In the assay with T-47D breast, the GI50 was 90.6 µM and the TGI is more than 100 µM.

In the case of `Cc1ccc(Cl)cc1Nc1nc(C(F)(F)F)ccc1C(=O)N1CCN(c2ccc(F)cc2)CC1`, the GI50 with MDA-MB-231 breast is 10.3 µM; in the assay with T-47D breast, 6.25 µM. Also, the TGI amounted to 24.4 µM with MDA-MB-231 breast and 42.6 µM with T-47D breast.

Consider `COC(=O)/C=C/c1cc(O)c2oc(-c3ccc(O)c(O)c3)c(C(=O)OC)c2c1`, for which the GI50 in the assay with MDA-MB-231 breast was 0.927 µM; in the assay with T-47D breast, 0.577 µM. Besides, the results for the TGI in the assay on MDA-MB-231 breast and in the assay on T-47D breast were 15.8 µM and 9.48 µM, respectively.

Take `COc1ncnc(C2CC2)c1-c1ncc2cnn(Cc3ccc(-c4nc(C(F)(F)F)cn4C(C)C)cc3)c2n1`: in the assay with MDA-MB-231 breast, the GI50 is 22.9 µM and the TGI was more than 100 µM. Moreover, in the assay on T-47D breast, the GI50 was 10.6 µM and the TGI was 85.2 µM.

Take `Cc1ccc(C(SCC(N)C(=O)O)(c2ccccc2)c2ccc(C)cc2)cc1` (stereo not drawn): the GI50 in the assay on MDA-MB-231 breast was 0.468 µM; with T-47D breast, 0.333 µM. Also, the TGI with MDA-MB-231 breast stood at 16.1 µM; in the assay on T-47D breast, 16.9 µM.

For the compound `CCOc1nc(-c2ccccc2)cc2c(O)c(-c3nnco3)[nH]c(=O)c12`, in the assay on MDA-MB-231 breast, the GI50 is 1.66 µM and the TGI is more than 29.8 µM. Besides, in the assay on T-47D breast, the GI50 is 0.251 µM and the TGI was 9.93 µM.

Take `CC/C(=C(/c1ccc(OCCN(C)C)cc1)c1ccc(OC(=O)CCCCC(=O)c2c(C)[nH]c(/C=C3\N=C(c4ccc[nH]4)C=C3OC)c2C)cc1)c1ccccc1`: in the assay with MDA-MB-231 breast, the GI50 is 1.99 µM and the TGI came to 11.4 µM. For the same compound, in the assay with T-47D breast, the GI50 was 1.37 µM and the TGI worked out at 6.02 µM.

With `CC(C)=C[C@@H]1C[C@H](C)[C@H]2CC[C@H](C)C3=C2[C@](O)(OC3=O)[C@]1(C)O`, in the assay with MDA-MB-231 breast, the GI50 is more than 100 µM and the TGI is more than 100 µM. Also, in the assay with T-47D breast, the GI50 is more than 100 µM and the TGI is more than 100 µM.

Turning to `O=C(Nc1ccc(OS(=O)(=O)c2ccccc2)cc1)C12CC3CC(CC(C3)C1)C2`, in the assay on MDA-MB-231 breast, the GI50 is 3.79 µM and the TGI is more than 100 µM. Also, in the assay with T-47D breast, the GI50 is 3.57 µM and the TGI is more than 100 µM.

Take `O=C1NC(=Nc2ccccc2)S/C1=C\c1ccc2ncccc2c1`: in the assay on MDA-MB-231 breast, the GI50 is more than 25 µM and the TGI is more than 25 µM. For the same compound, in the assay with T-47D breast, the GI50 was 12.3 µM and the TGI is more than 25 µM.

In the case of `Cn1c(=O)c2c(nc(Nc3cc(=O)[nH]c(=O)[nH]3)n2Cc2ccccc2)n(C)c1=O`, in the assay on MDA-MB-231 breast, the GI50 is more than 100 µM and the TGI is more than 100 µM. Moreover, in the assay on T-47D breast, the GI50 was more than 100 µM and the TGI was more than 100 µM.

Turning to `CCOC(=O)/C=C/C(C(=O)/C=C/c1ccc(OC2CCCCO2)c(OC)c1)=C(O)\C=C\c1ccc(OC2CCCCO2)c(OC)c1` (stereo not drawn), the GI50 in the assay with MDA-MB-231 breast was 2.56 µM; in the assay with T-47D breast, 15.1 µM. For the same compound, the TGI came out at 6.73 µM in the assay with MDA-MB-231 breast and 60.3 µM with T-47D breast.

For `Cn1cc(C2=C(c3ccc4ccccc4c3)C(=O)NC2=O)c2ccccc21`, in the assay with MDA-MB-231 breast, the GI50 is more than 25 µM and the TGI is more than 25 µM. Also, in the assay with T-47D breast, the GI50 was more than 25 µM and the TGI was more than 25 µM.

Regarding `Ic1ccc(Nc2nc3nonc3nc2Nc2ccc(I)cc2)cc1`, the GI50 in the assay on MDA-MB-231 breast is 0.209 µM; in the assay with T-47D breast, 0.179 µM. For the same compound, the TGI was 0.641 µM in the assay with MDA-MB-231 breast and more than 91.1 µM in the assay with T-47D breast.

For the compound `CC(SC(C)C(=O)N/N=C/c1cccc(Cl)c1)C(=O)N/N=C\c1cccc(Cl)c1` (stereo not drawn), the GI50 was 5.87 µM in the assay with MDA-MB-231 breast and 23 µM in the assay with T-47D breast. Further, the TGI came out at 28.8 µM with MDA-MB-231 breast and 93.8 µM in the assay on T-47D breast.

With `CC(C)(C)C(=O)OCOP(=O)(OCOC(=O)C(C)(C)C)C1CCCN(O)C1=O` (stereo not drawn), in the assay with MDA-MB-231 breast, the GI50 was 0.397 µM and the TGI turned out to be 20 µM. In the assay with T-47D breast, the GI50 was 0.543 µM and the TGI was determined as 17.8 µM.

For the compound `C[As](C)SC1OC(CO)C(O)C1O` (stereo not drawn), in the assay with MDA-MB-231 breast, the GI50 is 0.725 µM and the TGI came to 3.69 µM. For the same compound, in the assay with T-47D breast, the GI50 is 3.21 µM and the TGI is more than 100 µM.

As to `C[C@H]1c2cccc(O)c2C(O)=C2C(=O)[C@]3(O)C(O)=C(C(N)=O)C(=O)[C@@H](N(C)C)[C@@H]3[C@@H](O)[C@@H]21`, in the assay with MDA-MB-231 breast, the GI50 is 3.39 µM and the TGI was found to be 13.5 µM. Moreover, in the assay with T-47D breast, the GI50 was 3.28 µM and the TGI was found to be 34.8 µM.

Consider `CC(C)(C)OC(=O)NCC(O)CNC(=O)OC(C)(C)C`, for which the TGI with MDA-MB-231 breast and with T-47D breast was more than 100 µM each time.

Turning to `COC(=O)c1cc2c(cc1O)[C@@H](NC(C)=O)CCc1cc(OC)c(OC)c(OC)c1-2`, in the assay on MDA-MB-231 breast, the GI50 is 0.0542 µM and the TGI was more than 100 µM.

`Clc1ccc2c(NCCCNc3nccc(Nc4ccc(Br)cc4)n3)ccnc2c1`: in the assay with MDA-MB-231 breast, the GI50 was 1.79 µM and the TGI came to 3.47 µM.
